For assay [1], the target named is T1, Steryl-sulfatase (Homo sapiens) (UniProt P08842).
T1 sequence (whole entry): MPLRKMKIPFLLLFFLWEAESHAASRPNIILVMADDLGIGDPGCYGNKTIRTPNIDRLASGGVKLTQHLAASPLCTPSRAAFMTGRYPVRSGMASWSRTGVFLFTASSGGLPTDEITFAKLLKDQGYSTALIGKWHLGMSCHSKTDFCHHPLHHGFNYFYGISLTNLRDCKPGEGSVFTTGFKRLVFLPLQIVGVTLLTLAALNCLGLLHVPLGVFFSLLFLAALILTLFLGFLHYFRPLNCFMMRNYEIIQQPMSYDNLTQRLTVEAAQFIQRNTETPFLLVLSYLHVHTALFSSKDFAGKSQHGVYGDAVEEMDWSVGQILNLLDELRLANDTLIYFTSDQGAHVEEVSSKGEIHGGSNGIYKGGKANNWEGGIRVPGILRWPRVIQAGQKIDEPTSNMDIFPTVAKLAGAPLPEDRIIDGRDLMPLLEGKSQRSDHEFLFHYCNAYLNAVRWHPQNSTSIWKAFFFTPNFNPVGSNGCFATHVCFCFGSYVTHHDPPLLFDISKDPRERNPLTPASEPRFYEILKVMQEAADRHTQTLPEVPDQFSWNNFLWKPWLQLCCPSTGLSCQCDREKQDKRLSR
Kind of assay: Inhibition of STS (unknown origin) expressed in HEK-293 cells assessed as transformation of [3H]-E1S into E1 at 1 uM by […]. In kind it is cell-based. Particulars: HEK293.

For assay [2], the target named is T1, Steryl-sulfatase (Homo sapiens). Put plainly: Inhibition of STS (unknown origin) expressed in HEK-293 cells assessed as transformation of [3H]-E1S into E1 at 0.1 uM by […]. Particulars: HEK293. In kind it is cell-based.

Each structure is given as a SMILES string.

The inhibition is the percentage by which the read-out fell short of the control. In the case of `CCN(Cc1cccc(Br)c1)c1cccc(C(=O)N2CCc3ccc(OS(N)(=O)=O)cc3C2)c1`, the inhibition in assay [1] was found to be 24.9%; in assay [2], 20.9%.

Take `NS(=O)(=O)Oc1ccc2c(c1)CN(C(=O)c1ccc(N(CCCO)Cc3ccccc3)cc1)CC2`: the inhibition in assay [1] came out at 64.3%; in assay [2], 5.7%.

Regarding `CN(C)CCN(Cc1ccccc1)c1ccc(C(=O)N2CCc3ccc(OS(N)(=O)=O)cc3C2)cc1`, the inhibition came to 57.8% in assay [1] and 13.9% in assay [2].

`NS(=O)(=O)Oc1ccc2c(c1)CN(C(=O)c1cccc(N(CCCO)Cc3ccccc3)c1)CC2`: the inhibition in assay [1] was 37.3%; in assay [2], 25.8%.

For the compound `CN(C)CCN(Cc1ccccc1)c1cccc(C(=O)N2CCc3ccc(OS(N)(=O)=O)cc3C2)c1`, the results for the inhibition in assay [1] and in assay [2] were 28.6% and 0%, respectively.

With `NS(=O)(=O)Oc1ccc2c(c1)CN(C(=O)c1ccc(N3CCCCC3)cc1)CC2`, the values for the inhibition in assay [1] and in assay [2] were 38.3% and 11.5%, respectively.

As to `CCN(Cc1ccc(F)cc1)c1cccc(C(=O)N2CCc3ccc(OS(N)(=O)=O)cc3C2)c1`, the inhibition is 66.5% in assay [1] and 10.9% in assay [2].

On to `CCCN(CCC)c1cccc(C(=O)N2CCc3ccc(OS(N)(=O)=O)cc3C2)c1`, for which the inhibition in assay [1] was found to be 54.8%; in assay [2] it was 8.3%.

In the case of `NS(=O)(=O)Oc1ccc2c(c1)CN(C(=O)c1cccc(N3CCOCC3)c1)CC2`, the inhibition in assay [1] worked out at 20.9%; in assay [2], 0%.

Consider `NS(=O)(=O)Oc1ccc2c(c1)CN(C(=O)c1ccc(N3CCN(Cc4ccccc4)CC3)cc1)CC2`, for which the inhibition was 75.8% in assay [1] and 20.8% in assay [2].

Take `NS(=O)(=O)Oc1ccc2c(c1)CN(C(=O)c1ccc(N3CCSCC3)cc1)CC2`: the inhibition worked out at 80.2% in assay [1] and 32.3% in assay [2].

For the compound `CN(C)CCN(CCN(C)C)c1ccc(C(=O)N2CCc3ccc(OS(N)(=O)=O)cc3C2)cc1`, the results for the inhibition in assay [1] and in assay [2] were 15.9% and 3.8%, respectively.

Take `CCN(Cc1ccc(Br)cc1)c1ccc(C(=O)N2CCc3ccc(OS(N)(=O)=O)cc3C2)cc1`: the inhibition in assay [1] was determined as 95.9%; in assay [2] it was 78.2%.

In the case of `NS(=O)(=O)Oc1ccc2c(c1)CN(C(=O)c1cccc(N(Cc3ccccc3)Cc3ccco3)c1)CC2`, the inhibition in assay [1] was 90.5%; in assay [2] it was 27.5%.

Regarding `CN1CCN(c2ccc(C(=O)N3CCc4ccc(OS(N)(=O)=O)cc4C3)cc2)CC1`, the results for the inhibition in assay [1] and in assay [2] were 23.3% and 2.9%, respectively.

As to `CCN(Cc1ccc(F)cc1)c1ccc(C(=O)N2CCc3ccc(OS(N)(=O)=O)cc3C2)cc1`, the figures for the inhibition in assay [1] and in assay [2] were 91.2% and 69.1%, respectively.

`NS(=O)(=O)Oc1ccc2c(c1)CN(C(=O)c1ccc(N3CCC(N4CCCCC4)CC3)cc1)CC2`: the inhibition in assay [1] was found to be 53.7%; in assay [2] it was 8.5%.

For `CCN(Cc1ccccc1)Cc1ccc(S(=O)(=O)N2CCc3ccc(OS(N)(=O)=O)cc3C2)cc1`, the inhibition in assay [1] amounted to 31%; in assay [2], 10%.

For the compound `CN(C)CCN(CCN(C)C)c1cccc(C(=O)N2CCc3ccc(OS(N)(=O)=O)cc3C2)c1`, the inhibition in assay [1] was 17.1%; in assay [2], 0%.

Regarding `NS(=O)(=O)Oc1ccc2c(c1)CN(C(=O)c1cccc(N3CCSCC3)c1)CC2`, the inhibition in assay [1] worked out at 39.6%; in assay [2] it was 2.3%.

Turning to `NS(=O)(=O)Oc1ccc2c(c1)CN(C(=O)c1ccc(N3CCOCC3)cc1)CC2`, the inhibition in assay [1] stood at 50.6%; in assay [2], 10.9%.

Regarding `CCN(Cc1ccncc1)c1ccc(C(=O)N2CCc3ccc(OS(N)(=O)=O)cc3C2)cc1`, the inhibition came to 86.6% in assay [1] and 47% in assay [2].

Regarding `NS(=O)(=O)Oc1ccc2c(c1)CN(C(=O)c1cccc(N3CCc4ccccc4C3)c1)CC2`, the inhibition in assay [1] stood at 50.2%; in assay [2], 24.1%.

Consider `CN1CCN(c2cccc(C(=O)N3CCc4ccc(OS(N)(=O)=O)cc4C3)c2)CC1`, for which the results for the inhibition in assay [1] and in assay [2] were 12.6% and 0%, respectively.

`NS(=O)(=O)Oc1ccc2c(c1)CN(C(=O)c1ccc(N3CCN(c4ncccn4)CC3)cc1)CC2`: the inhibition in assay [1] is 41.9%; in assay [2] it was 14.7%.

With `CN(CCN1CCCCC1)c1ccc(C(=O)N2CCc3ccc(OS(N)(=O)=O)cc3C2)cc1`, the inhibition in assay [1] turned out to be 26.8%; in assay [2] it was 0.3%.

For `CCN(Cc1ccc(Br)cc1)c1cccc(C(=O)N2CCc3ccc(OS(N)(=O)=O)cc3C2)c1`, the inhibition in assay [1] came out at 84.5%; in assay [2], 24.2%.

`CCN(Cc1ccccn1)c1cccc(C(=O)N2CCc3ccc(OS(N)(=O)=O)cc3C2)c1`: the results for the inhibition in assay [1] and in assay [2] were 19.9% and 6.5%, respectively.

Take `NS(=O)(=O)Oc1ccc2c(c1)CN(C(=O)c1ccc(N(Cc3ccccc3)Cc3ccco3)cc1)CC2`: the results for the inhibition in assay [1] and in assay [2] were 98.2% and 90.8%, respectively.

On to `CCN(Cc1ccncc1)c1cccc(C(=O)N2CCc3ccc(OS(N)(=O)=O)cc3C2)c1`, for which the inhibition in assay [1] was 52.8%; in assay [2], 33.3%.

On to `CCCN(Cc1ccccc1)c1cccc(C(=O)N2CCc3ccc(OS(N)(=O)=O)cc3C2)c1`, for which the figures for the inhibition in assay [1] and in assay [2] were 67.4% and 23.1%, respectively.

Take `CN(CCN1CCCCC1)c1cccc(C(=O)N2CCc3ccc(OS(N)(=O)=O)cc3C2)c1`: the inhibition in assay [1] was 30.8%; in assay [2], 24.5%.

For `NS(=O)(=O)Oc1ccc2c(c1)CN(C(=O)c1cccc(N3CCN(c4ncccn4)CC3)c1)CC2`, the values for the inhibition in assay [1] and in assay [2] were 24.4% and 1.6%, respectively.

Consider `CC(C)CCN(CCC(C)C)c1ccc(C(=O)N2CCc3ccc(OS(N)(=O)=O)cc3C2)cc1`, for which the inhibition in assay [1] turned out to be 90.8%; in assay [2] it was 47%.

As for `CCN(Cc1cccnc1)c1ccc(C(=O)N2CCc3ccc(OS(N)(=O)=O)cc3C2)cc1`, the inhibition came out at 85.2% in assay [1] and 35.7% in assay [2].

As for `NS(=O)(=O)Oc1ccc2c(c1)CN(C(=O)c1cccc(N3CCC(Cc4ccccc4)CC3)c1)CC2`, the inhibition in assay [1] stood at 41.9%; in assay [2], 1.4%.

In the case of `CN(C)CCCN(Cc1ccccc1)c1ccc(C(=O)N2CCc3ccc(OS(N)(=O)=O)cc3C2)cc1`, the results for the inhibition in assay [1] and in assay [2] were 61.6% and 16.2%, respectively.

With `NS(=O)(=O)Oc1ccc2c(c1)CN(C(=O)c1ccc(N(CCO)Cc3ccccc3)cc1)CC2`, the inhibition was 78% in assay [1] and 27.9% in assay [2].

For the compound `CN(CCCN1CCCCC1)c1ccc(C(=O)N2CCc3ccc(OS(N)(=O)=O)cc3C2)cc1`, the inhibition stood at 40.7% in assay [1] and 17.4% in assay [2].

On to `NS(=O)(=O)Oc1ccc2c(c1)CN(C(=O)c1cccc(N(CCO)Cc3ccccc3)c1)CC2`, for which the inhibition in assay [1] came out at 32.4%; in assay [2] it was 26.7%.

With `CCN(Cc1ccccc1)Cc1ccc(CN2CCc3ccc(OS(N)(=O)=O)cc3C2)cc1`, the inhibition in assay [1] came to 17%; in assay [2], 1%.

In the case of `NS(=O)(=O)Oc1ccc2c(c1)CN(C(=O)c1cccc(N3CCN(Cc4ccccc4)CC3)c1)CC2`, the inhibition turned out to be 23.7% in assay [1] and 0% in assay [2].

With `CC(C)CCN(CCC(C)C)c1cccc(C(=O)N2CCc3ccc(OS(N)(=O)=O)cc3C2)c1`, the inhibition in assay [1] was 75.9%; in assay [2] it was 32.3%.

Regarding `CCN(Cc1cccnc1)c1cccc(C(=O)N2CCc3ccc(OS(N)(=O)=O)cc3C2)c1`, the inhibition is 33.5% in assay [1] and 14.3% in assay [2].

As for `NS(=O)(=O)Oc1ccc2c(c1)CN(C(=O)c1cccc(N3CCC(N4CCCCC4)CC3)c1)CC2`, the inhibition in assay [1] worked out at 8%; in assay [2], 0%.

`CCN(Cc1ccccc1)c1cccc(C(=O)N2CCc3ccc(OS(N)(=O)=O)cc3C2)c1`: the inhibition is 69% in assay [1] and 17.3% in assay [2].

Turning to `CCCN(Cc1ccccc1)c1ccc(C(=O)N2CCc3ccc(OS(N)(=O)=O)cc3C2)cc1`, the inhibition in assay [1] amounted to 94.3%; in assay [2], 64.8%.

With `NS(=O)(=O)Oc1ccc2c(c1)CN(C(=O)c1ccc(N3CCc4ccccc4C3)cc1)CC2`, the inhibition was 83% in assay [1] and 56% in assay [2].

On to `CCN(Cc1ccccn1)c1ccc(C(=O)N2CCc3ccc(OS(N)(=O)=O)cc3C2)cc1`, for which the inhibition was determined as 87.7% in assay [1] and 42.5% in assay [2].

`NS(=O)(=O)Oc1ccc2c(c1)CN(C(=O)c1cccc(N3CCCCC3)c1)CC2`: the inhibition stood at 11.9% in assay [1] and 1% in assay [2].

As to `CN(C)CCCN(Cc1ccccc1)c1cccc(C(=O)N2CCc3ccc(OS(N)(=O)=O)cc3C2)c1`, the inhibition was found to be 26% in assay [1] and 23.8% in assay [2].

For `CCN(Cc1cccc(Br)c1)c1ccc(C(=O)N2CCc3ccc(OS(N)(=O)=O)cc3C2)cc1`, the figures for the inhibition in assay [1] and in assay [2] were 97.2% and 80.2%, respectively.

For `CN(CCCN1CCCCC1)c1cccc(C(=O)N2CCc3ccc(OS(N)(=O)=O)cc3C2)c1`, the inhibition in assay [1] worked out at 30.6%; in assay [2] it was 24.1%.
